In US8871706B2, “Method for inhibiting inflammation and pre-inflammatory cytokine/chemokine expression using a ghrelin analogue” (Ipsen Pharma S.A.S., priority 2007, dated 2014):

Experiments:
[1] = test system: human peripheral blood monocytes; test: LPS/cytokine assay in human peripheral blood mononuclear cells; assay type: cell-based; conditions: 30 minutes pre-incubation, LPS 100 ηg/ml, 6 hours; ELISA
Method: Human Peripheral Blood Mononuclear Cells (cat #7200) were procured for the assay (Seracare Diagnostics, Gaithersburg, Md., U.S.A.). Frozen vials were thawed and washed once with Phosphate Buffered Saline (Thermo Fisher Scientific, Inc., Waltham, Mass., U.S.A.). Cells were then counted and plated into 96-well dishes. […] Plates were analyzed with a Spectramax® Reader using Softmax Pro software (Spectramax, Inc., Sunnyvale, Calif., U.S.A.).

[2] = test system: serum cytokines; test: Continuous infusion of ghrelin analogues in 5/6 nephrectomized rats: serum cytokines; assay type: in vivo; conditions: 150 ηmol/kg/day s.c. osmotic mini-pump; for change of serum IL-10 relative to the nephrectomy/saline group: CKD rats; for serum GM-CSF / serum IL-1-α (second listing) / serum IL-1α / serum IL-6 / serum IL-10 (anti-inflammatory cytokine) / serum TNF-α: nephrectomized rats
Method: (§1) F344/NTacfBR male rats (Taconic Farms, Inc., Germantown, N.Y., U.S.A.) were housed two to a cage, fed rat chow (diet 5001, Purina Mills, Inc., St. Louis, Mo., U.S.A.) and acclimated for at least three days prior to use.
(§2) A 5/6 nephrectomy was performed in two stages. The test subjects were initially anesthetized with standard rat cocktail and placed prone in a clean environment. A 1 cm posterior incision was made on the right flank through which the right kidney was located. For animals undergoing nephrectomy, the renal capsule was removed and the upper and lower third of the kidney was transected and the resultant wound cauterized leaving the middle third of the kidney with the renal artery and vein intact. For animals receiving a sham operation, the renal capsule was opened up and cauterized to simulate the manipulations performed in the nephrectomy. The external surgical wounds were closed by suturing and the test subject was isolated to facilitate recovery.
(§3) Nine days following the initial surgery, the animals were again anesthetized and placed prone in the surgical area. A 1 cm incision was made on the left side of the subject's abdomen and the left kidney was isolated. For animals undergoing nephrectomy, the renal capsule was removed and the vasculature was tied off by suturing. The vascular bundle was then transected distal to the suture and the entire kidney removed. Any residual bleeding was cauterized. For animals in the sham group, the renal capsule was removed and cauterized. The external surgical wounds were closed with suture. While still under anesthesia, osmotic mini-pumps were placed in all test subjects. A 1 cm incision was made in the midline overlying the posterior thorax at the level of the forelimbs and the underlying sub-cutaneous space was opened via blunt dissection. The osmotic minipumps were placed inside and the incision and closed with suture. This procedure marked the first day (“Day 0”) of treatment.
(§4) Each compound was dissolved in vehicle solution (2% inactivated rat serum, 5% Tween-80) sonicated and filtered through a […] syringe filter.
Rat serum samples were collected and tested for cytokines IL-1α, IL-1β, IL-2, IL-4, IL-6, IL-10, GM-CSF, INF-γ and TNF-α using a Bio-Plex rat cytokine 9-Plex assay (Bio-Rad Laboratories, Hercules, Calif., U.S.A.) according to the manufacturer's instructions for use thereof.
The pre-mixed standards were reconstituted in 0.5 ml of a Bio-Plex […] serum standard diluent generating a stock concentration of 50,000 pg/ml for each cytokine. The standard stock was serially diluted in the Bio-Plex rat serum standard diluent to generate eight points for a standard curve. The assay was performed in a 96 well filtration plate supplied with the assay kit. Pre-mixed beads (50 μl) coated with target capture antibodies were transferred to each well of the filtration plate and washed twice with Bio-Plex wash buffer. The samples were diluted (1:4) in the Bio-Plex serum sample diluent. Pre-mixed standards or diluted samples (50 μl) were added to each well containing washed beads. The plate was shaken and incubated at room temperature for thirty minutes at a low speed (300 rpm). After incubation and washing, pre-mixed biotin conjugated detection antibodies were added to each of the wells. The plate was thereafter incubated for approximately thirty minutes and shaken at a low speed (300 rpm). After incubation and washing, strepavidin-PE were added to each well. The incubation was terminated after shaking for ten minutes at room temperature. After washing, the beads were re-suspended in 125 μl of Bio-Plex assay buffer. Beads were read on the Bio-Plex suspension array system (Bio-Rad Laboratories, Hercules, Calif., U.S.A.). The accumulated data was analyzed using Bio-Plex Manager software version 3.0 with 5 PL curve fitting.
One-way ANOVA was used to determine differences among the nephrectomy and sham groups using a Bonferoni post-hoc test; P<0.05 was considered significant. […]

[3] = test system: IL-1β and IL-1RI gene expression in the hypothalamus and brainstem; test: Continuous infusion in 5/6 nephrectomized rats: central inflammatory transcripts; assay type: in vivo; conditions: Sham/Saline 1.00
Method: as §1, §2, §3, §4
After sacrifice, blood, brain, stomach and muscle were collected. A subset of the rats had their hypothalami dissected out, preserved in RNAlater solution (Applied Biosystems, Inc., Foster City, Calif., U.S.A.) and stored at −70° C. for extraction of RNA and RT-PCR analysis. A subset of the rats had their hypothalami and brainstems dissected out, preserved in RNAlater solution and stored at −70° C. for extraction of RNA and RT-PCR analysis. Hypothalamic blocks were dissected by making coronal transections at the optic chiasm and at the intersection between the hypothalamus and the mammalary bodies and sagital transections along the optic tracks. Cortex was then removed at the level of the corpus callosom. Brainstem blocks were dissected by removal of the cerebellum and coronal transections at the rostral border of the pons and at the spinal cord.
One-way ANOVA was used to determine differences among the nephrectomy and sham groups using a Bonferoni post-hoc test; P<0.05 was considered significant. In the case of the serum cytokines, each individual set of data was considered by ANOVA and the composite of all of the cytokine levels were considered together after normalizing all levels to the Sham/Saline group using a mixed model analysis for a trend for cytokines values among the different groups. This model takes into account the propensity of some animals to have higher or lower cytokine levels across all of the different cytokines and accounts for within-sample variability.

[4] = test system: mouse peritoneal macrophages; test: LPS-stimulated cytokine secretion from mouse peritoneal macrophages; assay type: cell-based; conditions: in vitro
Method: Mouse peritoneal macrophages were elicited by intraperitoneal (i. p.) injection of 2 ml of 4% Brewer's thioglycollate medium (Difco, Detroit, Mich., U.S.A.) into male BALB/c mice aged 6 to 10 weeks (Ace Animals, Inc., Boyertown, Pa., U.S.A.). Peritoneal exudate cells were obtained 72 hours after injection by peritoneal lavage with ice-cold RPMI 1640 medium (Sigma-Aldrich, St. Louis, Mo., U.S.A.). Peritoneal exudate cells containing lymphocytes and macrophages were washed twice and re-suspended in ice-cold RPMI 1640 medium supplemented with 2% heat-inactivated fetal calf serum “FCS” (Life Technologies, Rockville, Md., U.S.A.) and were seeded in flat-bottomed 96-well microtiter plates (Corning Glass, Corning, N.Y., U.S.A.) at 8×10^4 cells per well in a final volume 200 μl. The cells were incubated at 37° C. for 2 hours to adhere.

[5] = test system: TNBS-induced colitis; test: Established colitis model (TNBS); assay type: in vivo, mice; conditions: single 50 nM dose ip on days 6, 7 and 8 post-TNBS
Method: In an effort to examine the ability of the novel ligands of native ghrelin of the instant application to reduce inflammation of the colon in vivo, inflammation was induced in a mouse model and thereafter said subjects were treated with a novel ghrelin analogue of the instant application.
(§5) Male SJL mice (Charles River Laboratories, Wilmington, Mass., U.S.A.) approximately 5 to 6 weeks of age were employed. The guidelines proposed by the committee for the Care of Laboratory Animal Resources Commission of Life Sciences-National Research Council were followed to minimize animal pain and distress. Each animal received rodent laboratory chow and ad libitum water.
(§6) Acute colon inflammation was induced in the test subjects by administering 3 mg of […] (Thermo Scientific Pierce Protein Research Products, Waltham, Mass., U.S.A.) (TNBS) in 50% ethanol via a catheter inserted intrarectally from the test subject's anus on the day the study commenced and then again approximately 7 days thereafter. Control mice received the same volume of 50% ethanol without the TNBS.
Body weight for all test subjects was measured every day. Macroscopic evaluation of colon inflammation was performed on the 9th day after inducing TNBS-induced colitis.
The colons of the sacrificed test subjects were removed and measured.

[6] = test system: LPS-induced endotoxemia; test: In vivo LPS/cytokine assay in a mouse model; set-up: species or system mice; conditions: 5 and 10 nmoles i.p. 10 minutes prior to 5 μg LPS i.p.; serum 2 hours post-LPS
Method: In an effort to examine the ability of the novel ligands of native ghrelin of the instant application to modulate inflammatory cytokine expression in vivo, mice were treated with ghrelin prior to an LPS administration.
Male 22-24 g CD1 mice (Charles River Laboratories, Wilmington, Mass., U.S.A.) were used.
Mice were sacrificed 2 hours post-LPS challenge and serum was collected via heart puncture and stored −80° C.
Mouse serum was used with Lincoplex™ custom 7-plex immunoassay for TNF-α (FIG. 3), IL-1β, IL-6 (FIG. 6), IL-10 and GM-CSF (Linco Research, Inc., St. Charles, Mo., U.S.A.). The assay was performed according to the manufacturer's instructions. Plates were run on a Luminex® 200 analyzer (Luminex, Austin, Tex., U.S.A.) using Masterplex CT™ v1.0 software for acquisition and Masterplex™ QT v2.5 software for analysis (MiraiBio, Hitachi Software Engineering Co., Yokohama, JP).

[7] = test system: TNBS-induced colitis; test: Acute colon inflammation model (TNBS-induced colitis); assay type: in vivo, mice
Method: In an effort to examine the ability of the novel ligands of native ghrelin of the instant application to ameliorate inflammation of the colon in vivo, inflammation was induced in a mouse model and thereafter said subjects were treated with a novel ghrelin analogue of the instant application.
as §5
as §6, with “anus.” for “anus on the day the study commenced and then again approximately 7 days thereafter.”, “TNBS. […] Five mice from both groups were sacrificed 4 days post-TNBS-induced challenge.” for “TNBS.”
Body weight for all test subjects was measured every day. FIG. 27 Serum samples were tested for interferon-gamma by ELISA (Millipore, Inc., Billerica, Mass., U.S.A.). […]
The colons of the sacrificed test subjects at day 4 and day 10 were removed and measured.

[8] = test system: 3T3-L1 adipocytes; test: In vitro cytokine lipolysis assay in 3T3-L1 adipocytes (TNF-α induced lipolysis, glycerol content); assay type: cell-based; conditions: 1, 10 or 100 ηM, 10 minutes pre-treatment; 20 ηg/ml recombinant murine TNF-α, 24 hours
Method: The claimed compounds were tested for their ability to ameliorate cytokine levels. […] In addition, it has been determined that extracellular glucose is required for TNF-α mediated adipocyte lipolysis (Green, A. et al., Diabetes, (2004), 53 (1):74-81). Glycerol, generated by triglyceride breakdown, is released into the extracellular space through aquaporin adipose. Extracellular glycerol is easily assayed by incubation with glycerol kinase (to produce glycerol phosphate), glycerol phosphate oxidase (to produce H2O2), and horseradish peroxidase in the presence of a calorimetric substrate. As such, free glycerol can be assayed as a marker for adipolysis.
In the assay protocol, 3T3-L1 adipocytes were permeabilized and preincubated with the ghrelin analogues of the present invention. In particular, 3T3-L1 preadipocytes were obtained from 3T3-L1 fibroblasts (ATCC Deposit No. CL-173 described in U.S. Pat. No. 4,003,789). […]
The glycerol content was determined using an Adipolysis Assay Kit (Millipore Corporation, Temecula, Calif., U.S.A.).

| Substance | LPS-stimulated IL-6 secretion [1] | LPS-stimulated IL-10 secretion [1] | LPS-stimulated TNF-α secretion [1] | change of serum IL-10 relative to the nephrectomy/saline group [2] | serum GM-CSF [2] | serum IL-1-α (second listing) [2] | serum IL-1α [2] | serum IL-6 [2] | serum IL-10 (anti-inflammatory cytokine) [2] | serum TNF-α [2] | expression of IL1-RI in the brainstem [3] | transcript levels of IL-1R in the hypothalamus [3] | transcript levels of IL-1β in the brainstem [3] | transcript levels of IL-1β in the hypothalamus [3] | further results |
| --- | --- | --- | --- | --- | --- | --- | --- | --- | --- | --- | --- | --- | --- | --- | --- |
| (Aib^2, Glu^3(NH-hexyl))hGhrelin(1-28)-NH2 (GXEFLSPEHQRVQQRKESKKPPAKLQPR; Aib2, Glu3 NH-hexyl, C-terminal amide; Ghrelin Analogue) [Example #13] | inhibition | inhibition | inhibition | significant increase | 7.01+/−2.05 | 57.37+/−7.48 | 3.50+/−2.49 | 83.65+/−21.71 | 594.83+/−55.22 | 47.04+/−3.36 |  |  |  |  |  |
| H-Gly-Ser-Ser-Phe-Leu-Ser-Pro-Glu-His-Gln-Arg-Val-Gln-Gln-Arg-Lys-Glu-Ser-Lys-Lys-Pro-Pro-Ala-Lys-Leu-Gln-Pro-Arg-NH2 [hGhrelin(1-28)-NH2, reference compound] |  |  |  |  | 5.24+/−1.93 | 49.52+/−10.03 | 3.92+/−2.39 | 52.42+/−18.68 | 242.41+/−27.51 | 34.71+/−14.00 | 0.72+/−0.12 | 0.78+/−0.26 | 1.27+/−0.60 | 0.98+/−0.46 |  |
| H-Inp-D-Bal-D-Trp-Phe-Apc-NH2 [Example #27] | inhibition | inhibition | inhibition | significant increase | 8.01+/−2.83 | 46.58+/−9.87 | 3.84+/−1.62 | 98.41+/−36.66 | 419.26+/−38.71 | 45.81+/−6.23 | 0.75+/−0.18 | 0.77+/−0.17 | 1.34+/−0.46 | 1.54+/−0.42 | LPS-stimulated IL-6 secretion [4]: inhibition; LPS-stimulated TNF-α secretion [4]: inhibition; colitis in vivo [5]: effectively inhibited; colon size (length) of sacrificed test subjects [5]: smaller colons; anti-inflammatory effect on LPS-induced endotoxemia (TNF-α, IL-6, IL-10 and IL-13 expression in vivo) [6]: inhibition of TNF-α, IL-6, IL-10 and IL-13 expression; IFN-γ production in vivo ([7]; 5 nmolar and 50 nmolar dose ip approximately 12 hours after TNBS, serum ELISA, day 4): inhibited; colon size (length) of sacrificed test subjects ([7]; day 4 and day 10, 5 nM or 50 nM dose ip): smaller colons; lipolysis in the adipocytes induced by TNF-α (glycerol content) [8]: significantly inhibited |
